The values that follow are results of earlier work, collected in patent publication US20070026067A1, “Liquid formulations for controlled delivery of benzisoxazole derivatives” (priority 2005, published 2007).

For data set [1] the following is noted: in vivo.

For `Cc1nc2n(c(=O)c1CCN1CCC(c3noc4cc(F)ccc34)CC1)CCCC2O` (stereo not drawn) [Paliperidone], the solubility in water entry was “practically insoluble”. Besides, the half-life entry in data set [1] is on record as “about one”.
With `Cc1nc2n(c(=O)c1CCN1CCC(c3noc4cc(F)ccc34)CC1)CCCC2` [Risperidone], the solubility in water result is on record as “practically insoluble”.
